# Measurements published in BindingDB's records for doi:10.1021/jm010468s (Pfizer, 2002).
# Non-standard residues stand in square brackets, D forms with d. Residues, ends and D or L forms follow the SMILES beside them. Trp(6-Cl) = N[C@@H](Cc1c[nH]c2cc(Cl)ccc12)C(=O)O; Pmp = N[C@@H](Cc1ccc(CP(=O)(O)O)cc1)C(=O)O; Ac3c = NC1(C(=O)O)CC1; Aib = CC(C)(N)C(=O)O
# Assay: Inhibition of p53 binding to […] (hdm2-GST)
structure (smiles),measurement,value
"CSCC[C@H](NC(=O)[C@H](Cc1ccccc1)NC(C)=O)C(=O)NC(C)(C)C(=O)N[C@@H](Cc1ccc(CP(=O)(O)O)cc1)C(=O)N[C@@H](Cc1c[nH]c2cc(Cl)ccc12)C(=O)N[C@@H](CCC(=O)O)C(=O)NC1(C(=O)N[C@@H](CC(C)C)C(N)=O)CC1 [Ac-Phe-Met-Aib-Pmp-6-Cl-Trp-Glu-Ac3c-Leu-NH2, GST-hdm2 binding peptide] (Ac-FM[Aib][Pmp][Trp(6-Cl)]E[Ac3c]L-NH2)",IC50,5 nM
